Values quoted from earlier work as cited in patent US8906890B2, “Very low-dosed solid oral dosage forms for HRT” (Bayer Intellectual Property GmbH, priority 2010, dated 2014).

Settings: 2 mg E2 orally

In the case of `C[C@]12CC[C@@H]3c4ccc(O)cc4CC[C@H]3[C@@H]1CC[C@@H]2O` [E2, estradiol], the estrogen-related adverse events is given as “increased estrogen-related adverse events”.
